Results from ChEMBL document CHEMBL1201862, “PubChem BioAssay data set” (2004).
Active and inactive are the calls of the source.

Key:
[1] = HIV-1 AD8 envelope cell-cell fusion blockers – cherry-pick, dose response (AID 652062); assay type: functional, cell-based;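 further: luciferase signal from cell-cell fusion driven by HIV-1 clade B AD8 Env; potency is for inhibitors of fusion seen as a drop in luminescence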
[2] = molecular target: T1, High affinity choline transporter 1 (Homo sapiens, UniProt Q9GZV3); test: human choline transporter blockers, potency – cell-based, 5-point CRC, membrane potential dye, dose response (AID 504840); assay type: functional
T1 sequence (Q9GZV3 whole entry): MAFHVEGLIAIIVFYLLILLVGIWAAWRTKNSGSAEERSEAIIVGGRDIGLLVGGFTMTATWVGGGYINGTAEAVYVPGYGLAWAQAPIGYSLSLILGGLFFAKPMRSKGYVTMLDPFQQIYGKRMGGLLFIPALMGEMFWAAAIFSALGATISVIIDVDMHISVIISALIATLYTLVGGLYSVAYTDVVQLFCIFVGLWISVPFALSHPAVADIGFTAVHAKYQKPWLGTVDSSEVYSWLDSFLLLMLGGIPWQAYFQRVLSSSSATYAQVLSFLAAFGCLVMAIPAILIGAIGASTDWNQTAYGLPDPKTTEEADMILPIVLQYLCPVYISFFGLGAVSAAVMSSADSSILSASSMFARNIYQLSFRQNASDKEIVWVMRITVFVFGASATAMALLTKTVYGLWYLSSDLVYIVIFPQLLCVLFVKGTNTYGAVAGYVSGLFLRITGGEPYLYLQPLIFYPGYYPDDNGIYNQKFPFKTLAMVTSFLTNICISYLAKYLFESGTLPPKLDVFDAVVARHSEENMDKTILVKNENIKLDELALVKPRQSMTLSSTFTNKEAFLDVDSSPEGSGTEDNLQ

[3] = molecular target: T1, High affinity choline transporter 1; test: human choline transporter blockers, potency – cell-based, 10-point CRC, membrane potential dye, dose response (AID 588401); assay type: functional;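 further: membrane potential dye fluorescence of choline-evoked depolarization via CHT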
Large T antigen = Large T antigen (Simian virus 40, UniProt P03070); assay type: functional, Betapolyomavirus macacae;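 further: Confirmatory-stage PubChem screen for compounds that inhibit SV40 T antigen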
Chain of Large T antigen (P03070 whole entry): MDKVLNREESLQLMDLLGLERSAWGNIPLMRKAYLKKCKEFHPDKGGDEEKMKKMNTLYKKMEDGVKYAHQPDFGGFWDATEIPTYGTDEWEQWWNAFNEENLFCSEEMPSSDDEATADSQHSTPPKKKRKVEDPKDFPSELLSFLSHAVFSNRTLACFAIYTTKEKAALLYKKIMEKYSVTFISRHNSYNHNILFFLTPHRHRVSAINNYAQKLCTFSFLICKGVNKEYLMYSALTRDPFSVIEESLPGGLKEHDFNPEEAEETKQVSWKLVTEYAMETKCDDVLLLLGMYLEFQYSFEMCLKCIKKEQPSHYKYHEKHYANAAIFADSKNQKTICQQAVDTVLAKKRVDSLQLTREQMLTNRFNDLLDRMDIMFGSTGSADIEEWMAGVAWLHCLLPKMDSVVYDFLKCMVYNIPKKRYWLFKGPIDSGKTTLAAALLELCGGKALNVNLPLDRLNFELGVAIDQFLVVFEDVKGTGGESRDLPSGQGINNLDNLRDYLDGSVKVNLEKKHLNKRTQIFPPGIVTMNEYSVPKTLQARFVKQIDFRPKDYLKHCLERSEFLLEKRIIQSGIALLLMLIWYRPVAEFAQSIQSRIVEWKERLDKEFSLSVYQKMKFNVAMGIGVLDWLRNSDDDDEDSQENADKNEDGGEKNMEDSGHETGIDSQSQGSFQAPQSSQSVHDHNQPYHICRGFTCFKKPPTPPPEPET

[4] = molecular target: Dual specificity tyrosine-phosphorylation-regulated kinase 1A (Rattus norvegicus, UniProt Q63470); assay type: biochemical, Homo sapiens
Streptokinase A = molecular target: T2, Streptokinase A (Streptococcus pyogenes serotype M1, UniProt P10520); test: viability-normalized secreted streptokinase activity reduction – plasminogen activation absorbance, OD405, dose response (AID 1914); assay type: functional, Streptococcus pyogenes M1 GAS;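 further: secreted streptokinase activity via plasminogen activation per viability signal from cell pellet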
T2 sequence (P10520 whole entry): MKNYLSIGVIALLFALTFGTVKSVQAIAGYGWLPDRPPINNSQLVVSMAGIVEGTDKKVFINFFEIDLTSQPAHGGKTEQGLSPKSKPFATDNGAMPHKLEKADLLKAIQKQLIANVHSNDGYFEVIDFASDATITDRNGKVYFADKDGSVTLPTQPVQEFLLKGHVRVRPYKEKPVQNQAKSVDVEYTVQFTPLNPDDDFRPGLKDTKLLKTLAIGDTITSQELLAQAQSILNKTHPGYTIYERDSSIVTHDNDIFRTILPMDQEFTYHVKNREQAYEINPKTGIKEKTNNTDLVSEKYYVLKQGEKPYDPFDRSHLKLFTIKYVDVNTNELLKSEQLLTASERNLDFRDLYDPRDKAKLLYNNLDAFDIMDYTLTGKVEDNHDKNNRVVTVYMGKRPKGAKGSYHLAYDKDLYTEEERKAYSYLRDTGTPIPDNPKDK

[5] = molecular target: T3, Probable nicotinate-nucleotide adenylyltransferase (Staphylococcus aureus (strain N315), UniProt P65502); assay type: functional, Staphylococcus aureus subsp. aureus N315;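 on IC50 Mean: confirmatory dose-response retesting of NadD inhibitor hits first found in an ultra-high-throughput screen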
T3 sequence (P65502 whole entry): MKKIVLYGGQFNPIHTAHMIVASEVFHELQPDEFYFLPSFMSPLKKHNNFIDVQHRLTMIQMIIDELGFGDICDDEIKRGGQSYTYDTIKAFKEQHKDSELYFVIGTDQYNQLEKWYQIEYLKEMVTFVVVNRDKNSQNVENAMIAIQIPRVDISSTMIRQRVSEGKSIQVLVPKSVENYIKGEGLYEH

[6] = molecular target: T3, Probable nicotinate-nucleotide adenylyltransferase; assay type: functional, Staphylococcus aureus subsp. aureus N315; settings: read-out: IC50_Mean
[7] = molecular target: DNA (cytosine-5)-methyltransferase 1 (Homo sapiens, UniProt P26358); test: inhibition of DNA methylation by DNMT1 – biochemical, fluorescent molecular beacon, confirmation (AID 602386); assay type: functional
Chain of DNA (cytosine-5)-methyltransferase 1 (P26358 whole entry): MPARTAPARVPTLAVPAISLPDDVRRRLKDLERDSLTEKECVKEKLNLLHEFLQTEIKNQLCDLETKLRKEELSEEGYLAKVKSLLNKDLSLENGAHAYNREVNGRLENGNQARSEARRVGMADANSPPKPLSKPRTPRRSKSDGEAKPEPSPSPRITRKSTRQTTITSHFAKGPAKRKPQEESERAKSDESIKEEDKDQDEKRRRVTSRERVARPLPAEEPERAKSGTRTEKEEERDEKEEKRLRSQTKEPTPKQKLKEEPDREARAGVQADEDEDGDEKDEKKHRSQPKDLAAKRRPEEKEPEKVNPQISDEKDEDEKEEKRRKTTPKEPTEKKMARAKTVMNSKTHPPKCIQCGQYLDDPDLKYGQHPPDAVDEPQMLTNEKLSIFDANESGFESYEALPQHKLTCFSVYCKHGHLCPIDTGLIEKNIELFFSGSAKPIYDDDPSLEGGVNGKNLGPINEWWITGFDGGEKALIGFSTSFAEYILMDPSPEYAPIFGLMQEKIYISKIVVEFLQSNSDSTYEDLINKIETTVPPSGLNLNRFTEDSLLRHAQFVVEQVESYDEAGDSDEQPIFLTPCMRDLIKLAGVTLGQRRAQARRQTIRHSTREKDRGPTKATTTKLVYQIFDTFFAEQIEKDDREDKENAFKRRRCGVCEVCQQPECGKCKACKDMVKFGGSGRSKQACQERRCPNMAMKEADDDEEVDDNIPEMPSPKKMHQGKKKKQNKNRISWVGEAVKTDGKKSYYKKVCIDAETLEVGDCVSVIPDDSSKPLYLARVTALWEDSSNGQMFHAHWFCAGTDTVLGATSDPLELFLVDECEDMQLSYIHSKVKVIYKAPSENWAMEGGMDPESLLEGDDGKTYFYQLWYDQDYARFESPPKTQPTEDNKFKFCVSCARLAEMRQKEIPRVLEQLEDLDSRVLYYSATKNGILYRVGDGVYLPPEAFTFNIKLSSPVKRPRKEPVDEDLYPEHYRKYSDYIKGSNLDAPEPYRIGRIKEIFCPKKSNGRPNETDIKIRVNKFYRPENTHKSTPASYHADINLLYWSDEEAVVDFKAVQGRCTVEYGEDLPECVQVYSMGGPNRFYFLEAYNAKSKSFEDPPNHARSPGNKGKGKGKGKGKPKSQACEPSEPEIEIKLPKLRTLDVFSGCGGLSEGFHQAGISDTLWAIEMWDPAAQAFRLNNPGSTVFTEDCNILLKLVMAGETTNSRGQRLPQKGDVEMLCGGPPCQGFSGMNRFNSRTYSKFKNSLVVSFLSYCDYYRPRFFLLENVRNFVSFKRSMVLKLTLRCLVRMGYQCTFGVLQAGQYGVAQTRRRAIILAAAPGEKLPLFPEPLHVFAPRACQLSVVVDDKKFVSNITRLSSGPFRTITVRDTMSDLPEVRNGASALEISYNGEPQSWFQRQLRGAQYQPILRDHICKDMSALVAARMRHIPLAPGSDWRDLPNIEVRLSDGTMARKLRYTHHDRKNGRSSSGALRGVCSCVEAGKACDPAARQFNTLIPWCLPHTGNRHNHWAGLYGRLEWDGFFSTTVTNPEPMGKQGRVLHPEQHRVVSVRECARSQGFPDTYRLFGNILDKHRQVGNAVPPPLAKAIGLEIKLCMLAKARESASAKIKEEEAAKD

[8] = test system: Streptococcus sp. 'group A'; test: Streptococcus pyogenes SK(-)GAS viability under kanamycin – luminescence, BacTiterGlo, confirmation, counter-screen for streptokinase expression inhibitor project, dose response (AID 1900); assay type: functional, organism-based
[9] = molecular target: T4, Small ubiquitin-related modifier 1 (Homo sapiens, UniProt P63165); test: SUMO1 protein interaction blockers, potency – biochemical, fluorescence polarization, uHTS hits, dose response (AID 624382); assay type: functional; settings: read-out: IC50_Mean
T4 sequence (P63165 whole entry): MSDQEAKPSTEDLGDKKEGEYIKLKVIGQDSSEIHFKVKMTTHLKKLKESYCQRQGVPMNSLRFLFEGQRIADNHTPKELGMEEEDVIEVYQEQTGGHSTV

[10] = molecular target: T4, Small ubiquitin-related modifier 1; test: SUMO1 protein-protein binding blockers, potency – biochemical, FRET, dose response (AID 624383); assay type: functional; settings: read-out: IC50_Mean
Streptococcus = test: GAS UMAA2166 growth inhibition – luminescence, BacTiterGlo, counter-screen for streptokinase expression inhibitor project, dose response (AID 1915); assay type: functional, organism-based;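 further: potency for reduction of bacterial viability or growth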
Protein RecA = molecular target: T5, Protein RecA (Mycobacterium tuberculosis, UniProt P9WHJ3); test: Fluorescence Cell-Free Homogeneous Dose Retest to Identify Inhibitors of RecA-Intein Splicing Activity. [Related pubchem assays (depositor defined):AID2097, AID2223, AID489010, AID492950]; assay type: functional
T5 sequence (P9WHJ3 whole entry): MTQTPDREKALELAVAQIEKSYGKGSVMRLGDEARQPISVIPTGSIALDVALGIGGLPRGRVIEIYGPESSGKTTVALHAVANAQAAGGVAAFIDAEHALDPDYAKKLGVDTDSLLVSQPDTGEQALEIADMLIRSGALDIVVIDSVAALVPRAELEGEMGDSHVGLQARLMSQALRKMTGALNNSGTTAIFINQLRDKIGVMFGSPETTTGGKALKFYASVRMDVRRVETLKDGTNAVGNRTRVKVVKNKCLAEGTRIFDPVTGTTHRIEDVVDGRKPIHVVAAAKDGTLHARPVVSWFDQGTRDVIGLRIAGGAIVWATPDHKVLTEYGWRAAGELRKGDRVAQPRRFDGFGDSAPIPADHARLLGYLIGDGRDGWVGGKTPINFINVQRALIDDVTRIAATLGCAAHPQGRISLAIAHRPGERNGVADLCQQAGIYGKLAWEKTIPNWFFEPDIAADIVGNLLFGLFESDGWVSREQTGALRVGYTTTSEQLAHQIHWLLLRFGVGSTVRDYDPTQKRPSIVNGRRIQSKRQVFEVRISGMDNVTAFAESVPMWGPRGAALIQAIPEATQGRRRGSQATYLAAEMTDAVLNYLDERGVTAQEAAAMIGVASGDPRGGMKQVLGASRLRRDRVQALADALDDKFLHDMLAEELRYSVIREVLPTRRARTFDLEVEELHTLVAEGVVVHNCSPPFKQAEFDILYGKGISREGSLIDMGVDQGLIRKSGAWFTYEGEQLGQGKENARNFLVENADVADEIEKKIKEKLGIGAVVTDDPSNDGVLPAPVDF

[11] = loss of viability in HepG2 cells – cell-based, CellTiter-Glo, cherry-picked, cytotoxicity control for Shn3 inhibitor project, dose response (AID 624134); assay type: functional
[12] = molecular target: T6, Replicative DNA helicase DnaB (Mycobacterium tuberculosis, UniProt P9WMR3); test: DnaB intein splicing inhibitors, dose response, biochemical, cell-free fluorescence (AID 449749); assay type: functional
T6 sequence (P9WMR3 whole entry): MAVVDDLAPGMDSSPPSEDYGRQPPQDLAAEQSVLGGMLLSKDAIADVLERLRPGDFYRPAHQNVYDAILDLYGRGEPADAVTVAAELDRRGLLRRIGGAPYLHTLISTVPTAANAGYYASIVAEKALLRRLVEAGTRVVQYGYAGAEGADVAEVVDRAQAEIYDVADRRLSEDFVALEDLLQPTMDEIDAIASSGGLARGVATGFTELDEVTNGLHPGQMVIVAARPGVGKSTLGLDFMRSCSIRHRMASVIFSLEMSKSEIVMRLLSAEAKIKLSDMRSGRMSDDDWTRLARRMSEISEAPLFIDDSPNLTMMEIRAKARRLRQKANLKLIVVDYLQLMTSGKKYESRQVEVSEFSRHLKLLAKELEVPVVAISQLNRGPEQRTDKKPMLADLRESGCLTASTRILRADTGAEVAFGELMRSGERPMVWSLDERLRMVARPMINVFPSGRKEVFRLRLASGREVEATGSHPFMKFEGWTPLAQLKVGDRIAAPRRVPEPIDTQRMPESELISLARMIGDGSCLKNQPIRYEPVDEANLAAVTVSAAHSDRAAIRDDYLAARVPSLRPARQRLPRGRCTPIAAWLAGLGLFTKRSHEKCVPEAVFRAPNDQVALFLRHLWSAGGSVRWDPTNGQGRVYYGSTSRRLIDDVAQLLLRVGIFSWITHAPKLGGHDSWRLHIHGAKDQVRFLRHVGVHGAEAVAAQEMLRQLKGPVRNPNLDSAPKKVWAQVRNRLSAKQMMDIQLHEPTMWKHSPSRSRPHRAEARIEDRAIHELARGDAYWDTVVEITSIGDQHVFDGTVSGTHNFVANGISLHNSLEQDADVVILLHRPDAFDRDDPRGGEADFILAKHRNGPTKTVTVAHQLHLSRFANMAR

[13] = molecular target: ATP-binding cassette sub-family B member 6 (Homo sapiens, UniProt Q9NP58); test: concentration-dependent ABCB6 porphyrin transport blockade – K562-ABCB6 cells, flow cytometry, cherry pick 1, dose response (AID 623955); assay type: functional; settings: read-out: EC50_MICROM
Chain of ATP-binding cassette sub-family B member 6 (Q9NP58 whole entry): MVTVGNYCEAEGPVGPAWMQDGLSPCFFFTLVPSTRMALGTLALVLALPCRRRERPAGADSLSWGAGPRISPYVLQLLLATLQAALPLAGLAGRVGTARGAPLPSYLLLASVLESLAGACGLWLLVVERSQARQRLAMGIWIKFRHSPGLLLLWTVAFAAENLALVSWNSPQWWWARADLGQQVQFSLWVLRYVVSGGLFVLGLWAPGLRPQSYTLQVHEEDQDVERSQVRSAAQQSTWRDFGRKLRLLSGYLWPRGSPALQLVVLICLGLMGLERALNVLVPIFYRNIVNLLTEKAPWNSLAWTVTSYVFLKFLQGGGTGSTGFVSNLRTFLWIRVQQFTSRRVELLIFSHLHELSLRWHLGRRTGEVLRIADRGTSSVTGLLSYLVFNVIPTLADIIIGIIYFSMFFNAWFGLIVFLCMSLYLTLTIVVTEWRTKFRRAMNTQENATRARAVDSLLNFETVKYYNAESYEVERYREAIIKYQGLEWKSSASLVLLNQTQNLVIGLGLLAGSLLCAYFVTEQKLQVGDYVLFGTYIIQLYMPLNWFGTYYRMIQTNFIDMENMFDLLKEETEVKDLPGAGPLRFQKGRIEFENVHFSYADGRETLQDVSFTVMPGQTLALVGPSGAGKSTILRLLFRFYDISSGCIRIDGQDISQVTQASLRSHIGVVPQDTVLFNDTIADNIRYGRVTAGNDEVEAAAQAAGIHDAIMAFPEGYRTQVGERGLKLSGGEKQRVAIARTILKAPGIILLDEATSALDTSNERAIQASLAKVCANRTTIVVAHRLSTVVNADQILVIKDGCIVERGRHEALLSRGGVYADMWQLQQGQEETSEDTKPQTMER

[14] = non-specific 3'UTR reporter inhibition in Clone20-Shn3RL – cell-based, Renilla luciferase, cherry-picked, counter-screen for Shn3 inhibitor project, dose response (AID 624133); assay type: functional
[15] = molecular target: Heat shock protein HSP 90-alpha (Homo sapiens, UniProt P07900); assay type: functional, organism-based
INS1 = test: INS-1E survival protection against cytokine death – cell-based, luminescence, retest, dose response (AID 449756); assay type: functional; settings: Rattus norvegicus;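 further: cell death triggered by IL-1 beta plus TNF-alpha plus IFN-gamma mixture; protective hits raise ATP signal compared with cytokine alone wells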
[16] = reduction of Shn3 3'UTR-driven luciferase in osteoblasts – cell-based, Clone20 osteoblasts, firefly luciferase, cherry-picked, dose response (AID 624132); assay type: functional;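 further: firefly luciferase luminescence from reporter carrying the Shn3 3'UTR in osteoblasts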
Galanin receptor type 3 = Galanin receptor type 3 (Homo sapiens, UniProt O60755); test: Fluorescence-based cell-based primary high throughput dose response assay to identify antagonists of the Galanin Receptor 3 (GalR3).; assay type: functional
Chain of Galanin receptor type 3 (O60755 whole entry): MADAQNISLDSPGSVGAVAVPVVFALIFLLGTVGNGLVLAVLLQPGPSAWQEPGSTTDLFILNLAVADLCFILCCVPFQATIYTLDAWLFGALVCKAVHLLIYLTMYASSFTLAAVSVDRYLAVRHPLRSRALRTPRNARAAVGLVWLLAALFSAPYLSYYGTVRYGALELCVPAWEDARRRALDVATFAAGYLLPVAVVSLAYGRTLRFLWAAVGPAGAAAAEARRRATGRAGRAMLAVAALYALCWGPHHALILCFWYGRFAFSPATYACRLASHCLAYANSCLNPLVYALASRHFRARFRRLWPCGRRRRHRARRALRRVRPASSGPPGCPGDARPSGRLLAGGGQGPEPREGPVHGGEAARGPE

cells = assay type: functional, cell-based; settings: HEK-CNG
[17] = cAMP pathway inhibition in counterscreen cell line – TR-FRET cAMP detection, counter-screen for MC4R biased antagonist project, dose response (AID 602305); assay type: functional, cell-based;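 further: U2OS cells stimulated with forskolin near its EC80 as the cAMP inducer; potency is for inhibition of forskolin-stimulated cAMP signaling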
Melanocortin receptor 4 [18] = molecular target: T7, Melanocortin receptor 4 (Homo sapiens, UniProt P32245); test: inhibitors of MC4R cAMP signaling – cell-based, TR-FRET, biased antagonists, dose response (AID 602298); assay type: functional;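 further: antagonist potency against agonist-stimulated cAMP production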
T7 sequence (P32245 whole entry): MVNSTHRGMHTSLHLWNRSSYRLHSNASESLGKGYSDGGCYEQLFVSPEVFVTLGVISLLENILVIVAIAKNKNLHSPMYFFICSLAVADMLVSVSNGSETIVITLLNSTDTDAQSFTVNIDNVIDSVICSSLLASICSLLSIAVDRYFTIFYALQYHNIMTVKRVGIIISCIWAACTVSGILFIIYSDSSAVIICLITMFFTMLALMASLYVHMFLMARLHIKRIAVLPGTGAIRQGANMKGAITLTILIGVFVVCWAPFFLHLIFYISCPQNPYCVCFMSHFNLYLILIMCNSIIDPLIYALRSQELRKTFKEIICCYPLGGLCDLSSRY

[19] = molecular target: T8, Mitochondrial peptide methionine sulfoxide reductase (Bos taurus, UniProt P54149); assay type: functional;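 further: absorbance read-out, biochemical high-throughput dose-response screen for MsrA inhibitors, confirmatory; recombinant bovine MsrA coupled to E. coli TrxB with NADPH and selenocystamine; potency is for inhibitors of MsrA activity on DMSO substrate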
T8 sequence (P54149 whole entry): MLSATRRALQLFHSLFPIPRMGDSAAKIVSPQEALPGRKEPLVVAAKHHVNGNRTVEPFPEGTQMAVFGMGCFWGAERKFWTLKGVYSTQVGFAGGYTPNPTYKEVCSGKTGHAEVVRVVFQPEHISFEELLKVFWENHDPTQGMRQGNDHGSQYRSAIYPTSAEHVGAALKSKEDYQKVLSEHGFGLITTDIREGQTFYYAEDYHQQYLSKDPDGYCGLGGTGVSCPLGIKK

[20] = molecular target: Potassium voltage-gated channel subfamily KQT member 2 (Rattus norvegicus, UniProt O88943); test: blockers of KCNQ2 channel current – cell-based, automated electrophysiology, set II, rat KCNQ2, dose response (AID 588637); assay type: functional
Chain of Potassium voltage-gated channel subfamily KQT member 2 (O88943 whole entry): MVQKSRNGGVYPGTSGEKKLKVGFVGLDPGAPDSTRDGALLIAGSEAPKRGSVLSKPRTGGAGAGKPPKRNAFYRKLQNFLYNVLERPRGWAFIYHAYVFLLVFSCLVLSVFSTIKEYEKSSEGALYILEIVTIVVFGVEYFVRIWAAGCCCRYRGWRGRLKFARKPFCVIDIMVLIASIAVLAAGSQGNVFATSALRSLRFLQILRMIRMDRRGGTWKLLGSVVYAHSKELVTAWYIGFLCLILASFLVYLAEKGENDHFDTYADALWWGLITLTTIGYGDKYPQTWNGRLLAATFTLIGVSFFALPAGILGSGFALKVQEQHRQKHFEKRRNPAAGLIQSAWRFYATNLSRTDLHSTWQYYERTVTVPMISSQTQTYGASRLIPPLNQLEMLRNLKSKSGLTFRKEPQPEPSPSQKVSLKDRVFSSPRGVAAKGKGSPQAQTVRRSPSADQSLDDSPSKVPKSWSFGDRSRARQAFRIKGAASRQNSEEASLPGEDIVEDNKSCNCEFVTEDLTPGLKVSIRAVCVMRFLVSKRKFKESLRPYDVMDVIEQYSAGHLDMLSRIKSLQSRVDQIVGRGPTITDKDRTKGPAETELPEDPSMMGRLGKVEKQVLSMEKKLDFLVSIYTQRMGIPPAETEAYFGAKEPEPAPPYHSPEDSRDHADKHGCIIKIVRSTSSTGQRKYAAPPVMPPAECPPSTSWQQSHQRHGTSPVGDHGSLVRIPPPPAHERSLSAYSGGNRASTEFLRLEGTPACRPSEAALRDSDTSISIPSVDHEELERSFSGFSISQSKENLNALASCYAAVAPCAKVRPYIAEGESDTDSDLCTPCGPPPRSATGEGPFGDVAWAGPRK

[21] = molecular target: T9, DNA repair protein RAD52 homolog (Homo sapiens, UniProt P43351); assay type: functional, biochemical
T9 sequence (P43351 whole entry): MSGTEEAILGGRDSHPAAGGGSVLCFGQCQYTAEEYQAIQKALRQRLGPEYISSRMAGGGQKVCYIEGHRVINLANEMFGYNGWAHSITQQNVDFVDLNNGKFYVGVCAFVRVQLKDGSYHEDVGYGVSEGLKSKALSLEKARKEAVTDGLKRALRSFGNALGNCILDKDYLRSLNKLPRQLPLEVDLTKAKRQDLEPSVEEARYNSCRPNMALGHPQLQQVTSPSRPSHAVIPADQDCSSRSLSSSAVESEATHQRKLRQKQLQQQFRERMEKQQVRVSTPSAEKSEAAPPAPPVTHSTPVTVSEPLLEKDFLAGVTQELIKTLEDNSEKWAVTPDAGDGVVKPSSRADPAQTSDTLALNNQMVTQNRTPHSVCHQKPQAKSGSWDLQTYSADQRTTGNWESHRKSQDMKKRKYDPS

Melanocortin receptor 4 [22] = molecular target: T7, Melanocortin receptor 4; assay type: functional, cell-based

Cc1cc(Cl)c(S(=O)(=O)N2CCCC2)cc1OCC(=O)NC1CCCCC1
active: AC50 [1] 18.1 µM | IC50 [2] 4.68 µM | IC50 [3] 4.47 µM

CCOC(=O)c1c(N)ssc1=S
active: IC50 [2] 8.48 µM | IC50 [3] 3.81 µM | IC50 (Large T antigen) 95.5 µM

O=S(=O)(Nc1c(S(=O)(=O)c2ccccc2)c2nc3ccccc3nc2n1C1CCCCC1)c1ccccc1
inactive: IC50 [9] > 66.6 µM
active: AC50 [4] 26.7 µM | EC50 (Streptokinase A) 5.18 µM | IC50 [5] 5.42 µM | IC50 [6] 21.7 µM | IC50 [7] 5.23 µM | EC50 [8] 5.18 µM | IC50 [10] 9.65 µM | EC50 (Streptococcus) 12 µM

Cc1cccc(NC(=O)c2nc(S(=O)(=O)Cc3ccccc3)ncc2Cl)c1
active: EC50 (Protein RecA) 10.6 µM | AC50 [11] 17.5 µM | AC50 [12] 21.9 µM | EC50 [13] 21.5 µM | AC50 [14] 6.26 µM | AC50 [15] 2.42 µM | AC50 (INS1) 10.3 µM | AC50 [16] 2.66 µM

CC(=O)OC[C@]12CC[C@H]3[C@@](C)(CC[C@H]4C(C)(C)CCC[C@]34C)[C@@H]1CC(C1=CC(=O)OC1O)O2 (stereo partly drawn)
active: IC50 (Galanin receptor type 3) > 1.11 µM | AC50 [11] 8.6 µM | AC50 [14] 3.12 µM | AC50 [16] 0.634 µM
inactive: EC50 (cells) > 29.9 µM | IC50 [17] 55 µM | IC50 (Melanocortin receptor 4 [18]) 15.2 µM

Cc1cc(C(=O)N/N=C/C=C/c2ccc([N+](=O)[O-])cc2)[nH]n1
inactive: IC50 [19] 155 µM

CN1/C(=C\C(=S)NC(=O)c2cccc(Br)c2)C(C)(C)c2ccccc21
active: IC50 [20] 4.27 µM | AC50 (INS1) 3.96 µM

O=C(CSc1c2c(nc3cc(Cl)ccc13)CCCC2)NCCN1CCOCC1
inactive: IC50 [17] > 64.6 µM | IC50 (Melanocortin receptor 4 [18]) > 64.6 µM

CCCCCCCCCCCCCCCC[n+]1cccc(C(=O)N(CC)CC)c1
active: AC50 [21] 5.29 µM | AC50 [15] 9.18 µM
inactive: EC50 (Melanocortin receptor 4 [22]) > 89.2 µM
